The target of test [1] is His6-TEV-PDGFRβ (557-1016) (Homo sapiens (Human), UniProt P09619). The test is described as follows: PDGFRβ HTRF Assay. The format is biochemical. Conditions: read-out: PDGFR HTRF IC50. The procedure:
Instrumentation: a. Compound liquid handling: LabCyte Echo; b. Reagent liquid handling: Thermo Scientific Multidrop Combi; c. BMG PHERAStar multilabel plate reader.
Protein Reagent: His6-TEV-PDGFRβ Protein Prep prepared at Accelagen.
(§1) II. Methods and Procedures
Assay buffer stock solution, contains 50 mM Hepes, 10 mM MgCl2, 1 mM EGTA, and 0.01% Brij-35, 0.01% ovalbumin, 2 mM DTT at pH 7.5, in molecular biology grade water. Store at room temperature.
DTT, 2 M in molecular biology grade water, store at −20° C. in aliquots.
Ovalbumin, 10% or 100 mg/mL, prepare fresh on experimental day.
PDGFRβ, 116 μM (PDGFRb_08 Prep 02), produced at Accelagen. Store at −80° C. in aliquots.
TK-biotin peptide, […] in molecular biology grade water, store at −20° C. in aliquots.
ATP, 100 mM in molecular biology grade water, store at −20° C. in aliquots.
HTRF KinEASE-TK kit: Allow the contents of the Cisbio kit to warm up to room temperature before use. This kit contains HTRF detection buffer, TK-Antibody labeled with Eu^3+-cryptate, TK-substrate biotin and Streptavidin-XL665.
TK Substrate-Biotin, reconstitute 500 μg lyopholized with 574 μL molecular biology grade water to prepare a 500 μM stock; After use, aliquot the rest and store at −20° C.
TK Antibody-Cryptate, reconstitute lyophilized with 1 mL of molecular biology grade water (100× solution) then add 99 mL detection buffer to prepare a ready to use TK-antibody-cryptate solution; the concentration of the TK-antibody-cryptate reagent is not known. After use, aliquot the rest and store at −20° C.
Streptavidin-XL665, reconstitute 3 mg lyophilized with 3 mL molecular biology grade water to prepare a 1 mg/mL or 16.67 μM stock; MW=60 kDa; After use, aliquot the rest and store at −20° C.
Freshly Prepared Solutions:
Assay buffer. Dilute 5× Kinase buffer 5-fold with molecular biology grade water and add DTT to 2 mM and ovalbumin to 0.1 mg/mL (or 0.01%).
2× protein solution. Make a working solution of […] PDGFRβ in assay buffer. Keep on ice until use to maintain enzyme stability.
2× substrate solution. Make a working solution of 1.6 mM ATP and 1 μM TK-substrate biotin peptide in assay buffer.
3× quench/detection solution. Make a working solution of 0.1875 μM SA-XL665 and the TK-antibody cryptate diluted by 12 of total quench/detection volume in assay buffer.
Keep final streptavidin/biotin ratio at 1 to 8.
Example of 3× quench/detection solution preparation: 8 mL total volume.
TK antibody-cryptate in detection buffer—4000 μL
The kinase reaction is stopped by the addition of the detection reagents which contain EDTA (detection step).
Assay in white ProxiPlate 384-well
Step 1. Dispensing inhibitors/DMSO and low control: Using the ECHO 555 acoustic dispenser, spot desired compound serial dilutions in DMSO, NEAT DMSO to represent the uninhibited enzyme control, and 10 μM final [imatinib] to the represent the 100% inhibited enzyme control
Step 2. PDGFRβ E+I pre-incubation: Add 2 μL 2× protein solution to columns 1-24 using the Multidrop Combi. Centrifuge at 1000 rpm for 1 min. Incubate 30 min at RT
Step 2. Enzymatic reaction: Add 2 μL substrate solution to columns 1-24 to initiate the reaction using the Multidrop Combi; cover/seal the assay plate to reduce evaporation. Centrifuge at 1000 rpm for 1 min. Incubate at room temperature for 3 hours.
Step 3. Quench/Detection: Add 2 μl 3× quench/detection solution to columns 1-24 using the Multidrop Combi; cover/seal the plate. Centrifuge 1 min 1000 rpm. Incubate at RT for 60 min. Read the plate in PHERAstar (or similar instrument) on HTRF setting at excitation 337 nm—dual emission—665/620 nm ratio.
(§2) III. Calculations and Formulas
HTRF ratio values calculated by the instrument (Ratio is acceptor counts/donor counts*10,000) is exported from the plate reader and used in data analysis. […] Assay statistics can include Robust Z′ and Signal to Background.
% Inhibition Calculation: Percent inhibition will be calculated for sample wells based on the equation: […]
For orientation: TR-FRET usually uses a lanthanide donor and a delayed reading to cut background.

The target in test [2] is VEGFR2, unphosphorylated (Homo sapiens (Human), UniProt P35968). The test is described as follows: VEGFR ADP GLO Assay. The format is biochemical. Here is the method:
as §1
Assay buffer stock contains 50 mM HEPES pH7.5, 10 mM MgCl2, 0.01% Brij-35, and 1 mM EGTA.
Unphosphorylated VEGFR2. […] Store at −80° C. in aliquots.
Sonicate 10 mg/ml Srctide solution for 10 minutes and then vacuum filter.
Freshly Prepared Solutions
2× kinase solution. Make a working solution of 10 nM unphosphorylated VEGFR2 in Assay buffer. Vacuum filter 2× kinase solution prior to running assay. Keep on ice until use.
2× substrate/ATP solution. Make a working solution of 2 mg/mL srctide and 2.4 mM ATP in Assay buffer. Keep on ice until use.
Step 1. Dispensing inhibitors/controls: Using Echo, dispense 10 nL/well compound serial dilutions in DMSO to columns 1-22 (in 384-well plates) or columns 1-44 (in 1536-well plates). Dilution series=11 pt, 3-fold dilutions. The top compound concentration in the source plate is 4 mM. The top compound concentration in the assay plate is 10 uM. Using Echo, dispense 10 nl/well DMSO to column 23 (in 384-well plates) or columns 45-47 (in 1536-well plates). […] These wells will serve as positive control wells.
Step 2. Pre-incubation of inhibitors with kinase: Add 2 μL/well 2× kinase solution. Centrifuge at 1000 rpm for 1 min. Incubate at room temperature for 30 min.
Step 3. Kinase cascade reaction: Add 2 μL/well 2× substrate/ATP solution to initiate kinase reactions. Centrifuge at 1000 rpm for 1 min. Incubate at room temperature for 180 min.
Final concentrations of components in the assay:
Step 4. Quench: Add 2 uL/well ADP Glo Reagent+0.05% CHAPS. Centrifuge at 1000 rpm for 1 min; Incubate at room temperature for one hour.
Step 5. Detection: Add 2 uL/well Kinase Detection Reagent+0.05% CHAPS. Centrifuge at 1000 rpm for 1 min; Incubate at room temperature for 1 hour; Read Luminescence on a plate reader.
as §2
IC50 values are determined from a 4-parameter fit, using the following equation: Y=Bottom+(Top−Bottom)/(1+10^(Log IC50-X)*Hill slope) where X=log10 of the compound concentration; top can be defined by PC; bottom defined by NC.
For orientation: ADP-Glo first removes unused ATP, then detects ADP through luciferase.

The target in test [3] is Tb-labeled inactive PDGFRβ (Homo sapiens (Human), UniProt P09619). The test is described as follows: PDGFRβ LanthaScreen Assay. The format is binding. The conditions noted are these: read-out: PDGFR Lantha IC50.
Chain of Tb-labeled inactive PDGFRβ (P09619 33-1106): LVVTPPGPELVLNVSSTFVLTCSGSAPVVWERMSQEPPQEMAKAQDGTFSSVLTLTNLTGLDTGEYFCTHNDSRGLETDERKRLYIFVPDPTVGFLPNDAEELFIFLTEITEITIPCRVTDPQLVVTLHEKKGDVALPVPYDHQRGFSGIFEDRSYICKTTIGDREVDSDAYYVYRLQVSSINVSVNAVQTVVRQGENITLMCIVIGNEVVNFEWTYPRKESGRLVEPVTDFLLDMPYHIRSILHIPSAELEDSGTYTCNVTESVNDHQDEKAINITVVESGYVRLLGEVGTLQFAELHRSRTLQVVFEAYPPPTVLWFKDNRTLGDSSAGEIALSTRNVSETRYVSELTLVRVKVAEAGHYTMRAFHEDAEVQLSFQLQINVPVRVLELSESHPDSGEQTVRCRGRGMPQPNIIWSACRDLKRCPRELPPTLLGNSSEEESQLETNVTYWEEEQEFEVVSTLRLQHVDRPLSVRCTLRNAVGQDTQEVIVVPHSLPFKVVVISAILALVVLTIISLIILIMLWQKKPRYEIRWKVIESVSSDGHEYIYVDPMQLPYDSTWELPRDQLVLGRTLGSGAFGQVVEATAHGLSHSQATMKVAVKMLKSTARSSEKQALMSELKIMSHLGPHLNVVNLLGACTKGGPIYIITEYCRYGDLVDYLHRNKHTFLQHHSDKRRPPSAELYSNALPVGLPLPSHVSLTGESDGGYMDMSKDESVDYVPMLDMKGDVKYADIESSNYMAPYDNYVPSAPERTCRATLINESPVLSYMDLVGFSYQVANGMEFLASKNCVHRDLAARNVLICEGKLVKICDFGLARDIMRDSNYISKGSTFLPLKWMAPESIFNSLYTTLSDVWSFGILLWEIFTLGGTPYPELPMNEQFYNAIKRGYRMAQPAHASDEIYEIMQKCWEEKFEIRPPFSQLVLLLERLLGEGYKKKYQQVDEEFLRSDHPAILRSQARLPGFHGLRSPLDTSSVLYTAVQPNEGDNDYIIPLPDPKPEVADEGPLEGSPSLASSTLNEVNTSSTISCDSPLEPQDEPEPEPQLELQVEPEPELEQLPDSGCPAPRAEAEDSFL

Chain of His6-TEV-PDGFRβ (557-1016) (P09619 557-1016): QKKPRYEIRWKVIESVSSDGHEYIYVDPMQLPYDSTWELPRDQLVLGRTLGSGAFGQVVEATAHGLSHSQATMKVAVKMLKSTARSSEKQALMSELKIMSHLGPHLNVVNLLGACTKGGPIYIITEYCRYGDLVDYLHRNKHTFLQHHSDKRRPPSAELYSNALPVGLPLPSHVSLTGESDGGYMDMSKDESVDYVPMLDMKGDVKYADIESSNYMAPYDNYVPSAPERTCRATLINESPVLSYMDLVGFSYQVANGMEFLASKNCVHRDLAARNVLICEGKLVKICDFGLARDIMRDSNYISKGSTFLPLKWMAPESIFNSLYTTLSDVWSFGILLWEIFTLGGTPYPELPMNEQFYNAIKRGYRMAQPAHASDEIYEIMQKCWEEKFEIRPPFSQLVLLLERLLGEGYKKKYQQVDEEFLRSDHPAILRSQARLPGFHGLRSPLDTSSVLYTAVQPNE
Chain of VEGFR2, unphosphorylated (P35968 20-1356): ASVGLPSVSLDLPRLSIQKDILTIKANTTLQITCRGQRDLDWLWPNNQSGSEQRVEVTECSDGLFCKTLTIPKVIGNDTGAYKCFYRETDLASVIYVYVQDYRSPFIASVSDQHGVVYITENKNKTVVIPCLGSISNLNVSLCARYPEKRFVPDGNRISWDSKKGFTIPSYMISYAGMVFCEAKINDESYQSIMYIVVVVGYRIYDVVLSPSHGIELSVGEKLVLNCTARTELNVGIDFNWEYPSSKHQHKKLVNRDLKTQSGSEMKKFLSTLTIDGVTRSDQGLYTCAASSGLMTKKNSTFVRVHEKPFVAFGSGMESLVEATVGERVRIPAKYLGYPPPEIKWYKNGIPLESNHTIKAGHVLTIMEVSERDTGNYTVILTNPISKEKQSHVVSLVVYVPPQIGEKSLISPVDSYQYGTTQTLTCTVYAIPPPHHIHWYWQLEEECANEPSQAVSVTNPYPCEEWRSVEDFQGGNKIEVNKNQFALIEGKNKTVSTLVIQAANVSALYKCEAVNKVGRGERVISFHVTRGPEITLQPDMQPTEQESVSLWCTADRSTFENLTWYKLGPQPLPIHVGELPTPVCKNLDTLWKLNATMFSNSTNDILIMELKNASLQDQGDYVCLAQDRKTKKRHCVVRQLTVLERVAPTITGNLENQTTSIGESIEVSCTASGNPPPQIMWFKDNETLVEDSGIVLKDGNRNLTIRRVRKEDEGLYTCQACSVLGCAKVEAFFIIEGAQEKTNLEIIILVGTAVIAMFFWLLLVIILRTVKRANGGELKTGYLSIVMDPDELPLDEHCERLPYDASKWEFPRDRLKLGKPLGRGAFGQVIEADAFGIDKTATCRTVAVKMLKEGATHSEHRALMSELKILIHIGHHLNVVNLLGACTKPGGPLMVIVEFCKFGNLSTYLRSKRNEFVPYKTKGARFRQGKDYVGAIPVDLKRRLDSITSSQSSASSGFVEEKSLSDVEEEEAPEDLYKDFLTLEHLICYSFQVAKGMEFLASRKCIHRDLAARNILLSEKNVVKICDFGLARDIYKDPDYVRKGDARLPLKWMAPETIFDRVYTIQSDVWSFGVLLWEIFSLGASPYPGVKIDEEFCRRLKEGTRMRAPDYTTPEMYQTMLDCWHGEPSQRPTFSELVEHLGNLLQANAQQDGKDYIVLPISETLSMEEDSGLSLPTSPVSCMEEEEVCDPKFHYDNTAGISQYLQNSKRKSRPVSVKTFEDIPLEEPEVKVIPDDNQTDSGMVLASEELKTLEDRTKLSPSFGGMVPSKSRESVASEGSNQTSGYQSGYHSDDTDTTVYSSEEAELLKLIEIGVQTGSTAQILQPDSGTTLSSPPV

Take `Cc1ncc(C(=O)NCCN2CCCC2(C)C)cc1NC(=O)c1cnn2cc(-c3cccc(C(=O)O)c3)sc12` [Example 134, 3-(7-((5-((2-(2,2-dimethylpyrrolidin-1-yl)ethyl)carbamoyl)-2-methylpyridin-3-yl)carbamoyl)pyrazolo[5,1-b]thiazol-2-yl)benzoic acid]: the results for the 50% inhibitory concentration (IC50) in test [1], in test [2] and in test [3] were 2.9 nM, > 7500 nM and 13.9 nM, respectively.
Take `Cc1ncc(C(=O)NCCN2CCCC2(C)C)cc1NC(=O)c1cnn2cc(-c3ccnc(N(C)C)c3)sc12` [Example 490, 2-(2-(dimethylamino)pyridin-4-yl)-N-(5-((2-(2,2-dimethylpyrrolidin-1-yl)ethyl)carbamoyl)-2-methylpyridin-3-yl)pyrazolo[5,1-b]thiazole-7-carboxamide]: the 50% inhibitory concentration (IC50) (as a rule, the concentration at which inhibition is half-maximal) in test [1] is 0.3 nM; in test [2] it was > 7500 nM; in test [3], 2.3 nM.
For `Cc1ncc(C(=O)NCCN2CC(C)(C)C2)cc1NC(=O)c1cnn2cc(-c3cnn4c3COCC4)sc12` [Example 489, 2-(6,7-dihydro-4H-pyrazolo[5,1-c][1,4]oxazin-3-yl)-N-(5-((2-(3,3-dimethylazetidin-1-yl)ethyl)carbamoyl)-2-methylpyridin-3-yl)pyrazolo[5,1-b]thiazole-7-carboxamide], the IC50 in test [1] was 0.5 nM; in test [2] it was > 7500 nM; in test [3], 5.5 nM.
With `Cc1ncc(C(=O)NCCN2CCCC2(C)C)cc1NC(=O)c1cnn2cc(-c3ccc(C(=O)O)cc3)sc12` [Example 133, 4-(7-((5-((2-(2,2-dimethylpyrrolidin-1-yl)ethyl)carbamoyl)-2-methylpyridin-3-yl)carbamoyl)pyrazolo[5,1-b]thiazol-2-yl)benzoic acid], the IC50 is 1.5 nM in test [1], > 7500 nM in test [2] and 6.3 nM in test [3].
On to `Cc1ncc(C(=O)NCCN2CCCC2(C)C)cc1NC(=O)c1cnn2cc(-c3ccc(N)nc3)sc12` [Example 130, 2-(6-aminopyridin-3-yl)-N-(5-((2-(2,2-dimethylpyrrolidin-1-yl)ethyl)carbamoyl)-2-methylpyridin-3-yl)pyrazolo[5,1-b]thiazole-7-carboxamide], for which the IC50 is 0.5 nM in test [1], > 7500 nM in test [2] and 4.3 nM in test [3].
Turning to `Cc1ncc(C(=O)NCCNC2CCC2)cc1NC(=O)c1cnn2cc(-c3cnn4c3CCC4)sc12` [Example 491, N-(5-((2-(cyclobutylamino)ethyl)carbamoyl)-2-methylpyridin-3-yl)-2-(5,6-dihydro-4H-pyrrolo[1,2-b]pyrazol-3-yl)pyrazolo[5,1-b]thiazole-7-carboxamide], the figures for the 50% inhibitory concentration (IC50) in test [1], in test [2] and in test [3] were 0.3 nM, > 7500 nM and 4.9 nM, respectively.
For the compound `Cc1ncc(C(=O)NCCN2[C@H](C)CCC[C@@H]2C)cc1NC(=O)c1cnn2cc(-c3cnn(C)c3)sc12` [Example 164], the IC50 is 1.5 nM in test [1], > 7500 nM in test [2] and 6.2 nM in test [3].
For the compound `Cc1ncc(C(=O)NCCN2CCCC2(C)C)cc1NC(=O)c1cnn2cc(-c3cccnc3)sc12` [Example 135, N-(5-((2-(2,2-dimethylpyrrolidin-1-yl)ethyl)carbamoyl)-2-methylpyridin-3-yl)-2-(pyridin-3-yl)pyrazolo[5,1-b]thiazole-7-carboxamide], the IC50 was 1.3 nM in test [1], > 7500 nM in test [2] and 10.6 nM in test [3].
Taken in the same sequence, the figures for `Cc1ccc(-c2cn3ncc(C(=O)Nc4cc(C(=O)NCCN5CCCC5(C)C)cnc4C)c3s2)cn1` [Example 136, N-(5-((2-(2,2-dimethylpyrrolidin-1-yl)ethyl)carbamoyl)-2-methylpyridin-3-yl)-2-(6-methylpyridin-3-yl)pyrazolo[5,1-b]thiazole-7-carboxamide] were 1.4 nM, > 7500 nM and 1 nM.
Taken in the same sequence, the figures for `Cc1ncc(NC(=O)CCC2CCCN2C)cc1NC(=O)c1cnn2cc(-c3cnn(C)c3)sc12` (stereo not drawn) [Example 492, 2-(1-methyl-1H-pyrazol-4-yl)-N-(2-methyl-5-(3-(1-methylpyrrolidin-2-yl)propanamido)pyridin-3-yl)pyrazolo[5,1-b]thiazole-7-carboxamide] were 0.7 nM, > 7500 nM and 15 nM.
With `Cc1ncc(C(=O)NCCN2CCCC2(C)C)cc1NC(=O)c1cnn2cc(-c3ccc(=O)n(C)c3)sc12` [Example 138, N-(5-((2-(2,2-dimethylpyrrolidin-1-yl)ethyl)carbamoyl)-2-methylpyridin-3-yl)-2-(1-methyl-6-oxo-1,6-dihydropyridin-3-yl)pyrazolo[5,1-b]thiazole-7-carboxamide], the concentration for half-maximal inhibition (IC50) in test [1] is 3.7 nM; in test [2] it was > 7500 nM; in test [3], 39.6 nM.
`Cc1ncc(C(=O)NCCN2CCCC2(C)C)cc1NC(=O)c1cnn2cc(-c3ccc(=O)[nH]c3)sc12` [Example 137, N-(5-((2-(2,2-dimethylpyrrolidin-1-yl)ethyl)carbamoyl)-2-methylpyridin-3-yl)-2-(6-oxo-1,6-dihydropyridin-3-yl)pyrazolo[5,1-b]thiazole-7-carboxamide]: the IC50 in test [1] was 2.2 nM; in test [2], > 2500 nM; in test [3], 24.4 nM.
Regarding `Cc1ncc(C(=O)NCCN2CCCC2(C)C)cc1NC(=O)c1cnn2cc(-c3cnn(C)n3)sc12` [Example 131, N-(5-((2-(2,2-dimethylpyrrolidin-1-yl)ethyl)carbamoyl)-2-methylpyridin-3-yl)-2-(2-methyl-2H-1,2,3-triazol-4-yl)pyrazolo[5,1-b]thiazole-7-carboxamide], the IC50 in test [1] was 1.7 nM; in test [2], > 7500 nM; in test [3], 9.1 nM.
